Results as given in US8372600B2, “Method and apparatus for measuring changes in cell volume” (priority 2004, dated 2013).

Tests used:
[1] = target: T1, P2X7 (purinergic ion channels) (Homo sapiens, UniProt Q99572); assay: Volume change of HEK cells transfected with P2X7, measured in the chamber; type: cell-based
T1 construct: expressed in transfected cells; host or cells: HEK cells
T1 sequence (Q99572 1-595): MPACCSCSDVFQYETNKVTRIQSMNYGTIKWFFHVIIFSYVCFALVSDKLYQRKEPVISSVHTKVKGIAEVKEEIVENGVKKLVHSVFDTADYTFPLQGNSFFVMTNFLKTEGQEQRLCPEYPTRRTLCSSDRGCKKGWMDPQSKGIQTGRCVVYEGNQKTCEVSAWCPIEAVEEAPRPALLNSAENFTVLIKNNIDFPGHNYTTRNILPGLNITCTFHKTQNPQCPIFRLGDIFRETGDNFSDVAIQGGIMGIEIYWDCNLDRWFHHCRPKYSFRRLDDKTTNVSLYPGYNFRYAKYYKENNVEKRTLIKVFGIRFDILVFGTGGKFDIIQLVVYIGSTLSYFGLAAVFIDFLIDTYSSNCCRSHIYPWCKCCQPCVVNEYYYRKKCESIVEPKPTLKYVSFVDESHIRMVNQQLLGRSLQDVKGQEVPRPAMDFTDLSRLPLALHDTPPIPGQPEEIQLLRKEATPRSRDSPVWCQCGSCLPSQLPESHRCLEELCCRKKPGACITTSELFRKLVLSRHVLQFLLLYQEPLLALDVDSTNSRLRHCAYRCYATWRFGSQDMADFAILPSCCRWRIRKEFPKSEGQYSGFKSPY
Excerpt: The chamber is sensitive to more than toxic or anisotonic media. […] Thus, the device can serve as a coarse grained substitute for common (but slow) electrophysiologically assays.

[2] = test system: GH3 cells; details: previously known; cited from earlier work
[3] = test system: astrocyte RVD; assay: Astrocyte regulatory volume decrease (RVD) under a 188 mOsm hypotonic stimulus, measured as chamber resistance in the microfluidic chip; type: cell-based, rat; details: 188 mOsm stimulus; for Effect on RVD: FIG. 13
Excerpt: A microfluidic chip comprising a channel 15 μm deep and 1.5 mm wide was fabricated an connected to a fluid inlet and a fluid outlet. Along the length of the channel, there were two chambers (labeled 22 and 24 in FIGS. 1-3). Chamber 22 was configured for measuring cell volume and comprised a depth of 15 μm. Chamber 24 was deeper (55 μm) and served as a calibrating chamber for monitoring solution resistivity. Thin film platinum electrodes disposed in each chamber formed a four-point probe for measuring the chamber impedance. The chip was mounted on an acrylic platform to mate with external fluid connections. For testing adherent cells, the cells were cultured on glass coverslips and inverted on top of the chip so that the cells faced chamber 22. The coverslip was pressed against the chip with a clamp that applied a uniform force of approximately 50 N. For the electrical measurements, an active current source providing 1 μA of a 50 Hz sinusoid was applied to the two outer electrodes. Low frequency stimulation was utilized to minimize the dielectric loss in the silicon and to reduce the demands on the common mode rejection of the voltage amplifier. The voltage between the two inner electrodes was measured using a homemade instrumentation amplifier with input currents <1 pA to reduce polarization. A lock-in amplifier provided rectification and filtering.
To test the microfluidic chip performance with living cells, examination of the volume regulatory response of rat astrocytes was conducted. Solution osmolality was adjusted using mannitol, which allowed a constant ionic strength to be maintained. For the most critical tests, the solution conductivities were finely titrated to be equal at all osmotic pressures; the flow rate was constant at approximately 0.3 μl/s. FIGS. 10 and 11 show the astrocytes' response to perfusion with hypotonic and hypertonic stimuli. Hypotonic media caused a rapid (˜1 min) increase in volume followed by a slow (10 min) decrease—the well known regulatory volume decrease (RVD). RVD in astrocytes is due to the efflux of KCl and neutral organic osmolytes such as taurine. The time course and extent of RVD using 188, 220, and 273 mOsm solutions (FIG. 10) are in agreement with published data. RVD in other cell types was tested, including HEK and MDCK, and similar responses were identified. However, the RVI was only observed with mild stimuli (<345 mOsm) (FIG. 11). Similar results have been previously reported for astrocytes. The RVI under the above conditions is driven by Na^+, K^+, and Cl^− fluxes through a co-transporter.
A microfluidic chip was tested by screening peptides isolated from the tarantula Grammostola spatulata. The peptides were added to a hypotonic perfusate and their effects on astrocyte RVD were examined. […]

[4] = test system: E. Coli strain (BL21(DE3)); assay: Antibiotic sensitivity of suspended bacteria: growth monitored by chamber resistance; type: cell-based; details: 50 μg/ml and 10 μg/ml, 24° C., FIG. 14
Protocol: To test the microfluidic chip performance with suspended cells, the first chamber was perfused with an E. Coli suspension. The E. Coli strain (BL21(DE3)) harbors a plasmid that confers resistance to kanamycin. The cells were tested for antibiotic sensitivity by adding varying concentrations of carbenicillin—an antibiotic to which the bacteria are susceptible. After filling the chamber with bacteria, flow was stopped and the chamber resistance monitored. […] By adding specific ligands, such as antibodies, to the walls of the measuring chamber, specific microorganisms can be purified, concentrated and assayed in a single step. Since cellular organelles are similar in size to bacteria, the present invention can also be used to study the metabolism of mitochondria, chloroplasts, and vesicles or organelles such as the ER.

Nc1ncnc2c1ncn2[C@@H]1O[C@H](COP(=O)(O)OP(=O)(O)OP(=O)(O)O)[C@@H](O)[C@H]1O [ATP]
Cell volume response following activation [1]: reversible volume changes

GsMTx1
Effect on swelling-induced Ca2+ uptake [2]: block
Reduction of RVD ([3]; 100 pM peptide in hypotonic perfusate): about 50%
Effect on RVD ([3]; 1 nM peptide in hypotonic perfusate): completely blocked
Effect on RVD ([3]; 10 nM peptide in hypotonic perfusate): completely blocked
Effect on RVD ([3]; 1 μM peptide in hypotonic perfusate): completely blocked

CC1(C)S[C@@H]2[C@H](NC(=O)C(C(=O)O)c3ccccc3)C(=O)N2[C@H]1C(=O)O (some centres unmarked) [Carbenicillin, carbenicillin]
Time until growth was visibly slowed [4]: ≤ 15 min
Effect on bacterial growth ([4]; concentration dependent): visibly slowed growth
